Assay results from ChEMBL document CHEMBL5046244, “Targeted Covalent Inhibition of Small CTD Phosphatase 1 to Promote the Degradation of the REST Transcription Factor in Human Cells” (J Med Chem, 2022).
Activity calls are given as the source filed them. The rule behind the calls is not given here.

Biological target: T1, Carboxy-terminal domain RNA polymerase II polypeptide A small phosphatase 1 (Homo sapiens) (UniProt Q9GZU7)
T1 sequence (whole entry): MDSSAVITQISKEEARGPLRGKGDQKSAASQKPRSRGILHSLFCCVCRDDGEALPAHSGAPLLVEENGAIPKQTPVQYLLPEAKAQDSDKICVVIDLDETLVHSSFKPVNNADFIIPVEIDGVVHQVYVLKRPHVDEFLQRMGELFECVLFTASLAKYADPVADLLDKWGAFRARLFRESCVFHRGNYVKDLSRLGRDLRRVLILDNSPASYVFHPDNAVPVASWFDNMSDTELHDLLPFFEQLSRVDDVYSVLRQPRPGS
Test: Binding affinity to wild type human SCP1 assessed as covalent bond formation at 50 uM incubated for 18 hrs

With `C#CCCC(=O)NCCCNC(=O)C1=Cc2ccccc2S1(=O)=O` the Activity was “inactive”.
